Results: patent US20230072854A1, “PARAXANTHINE-BASED BIOACTIVE COMPOSITION AND METHOD OF USE THEREOF” (Ingenious Ingredients, LP, priority 2020, published 2023)

What was measured:
[1] = test system: volunteers; experiment: Sternberg task test, double blind crossover vs placebo; assay type: in vivo, human; settings: 200 mg
From the text: (§1) In a double blind, randomized, crossover, and repeated measures manner, 13 volunteers (10 male, 3 female, average age 24±5 years, average body weight 72.91±19.30 kg, average height 169.96±11.84 cm, average BMI 24.80±3.71 kg/m^2) participated in this study. Participants limited ingestion of caffeine and other stimulants to normal use for 48-hours, fasted for 8-hours and reported to the lab and completed 4 different cognitive function tests to assess short-term attention and inhibitory control (Go-No Go Test), sustained attention (Vigilance Task Test), working memory (Sternberg Task Test) and cognitive flexibility (Berg-Washington Card Sorting Test). Once completed, the participants ingested either a placebo or 200 mg of paraxanthine (WGI, TX, USA) with 8 ounces of water. Participants repeated cognitive function tests 1, 2, 3, 4, 5, and 6 hours after ingestion of the supplement. After one-week participants repeated the experiment while consuming the other treatment.
(§2) Data were analyzed by a General Linear Model multivariate and univariate analyses with repeated measures using body weight as a covariate. Data are expressed as means±standard deviations for the placebo (PLA) and Paraxanthine (PrX). Greenhouse-Geisser univariate p-levels are listed for time (T), weight×time (W×T) and group×time (G×T) interactions effects. Pairwise comparison is indicated by the following superscripts: †=[…] difference from baseline value; *=[…] difference from baseline; a=[…] difference between groups; b=[…] difference between groups. Eta2 vaules of […] are considered small, […] medium, and >0.14 are considered large.
A test of working memory, ability to make use of short-term memory. A lower reaction time means participants can access their working memory faster. The Sternberg Task test is a widely used paradigm for studying short-term/working memory (STM/WM) involving cognitive control processes.

[2] = test system: volunteers; experiment: Go/No-Go test, double blind crossover vs placebo; assay type: in vivo, human; settings: 200 mg; for Response Time Average: in ms (unit assumed)
From the text: as §1, §2
A test of sustained attention and response control (i.e., attention/inhibition). Lower response times represents better ability to pay attention and inhibitory control.

Question: How did the “Letter Length 6: Present Reaction Time (Millisecond)” value ([1]; hour 6 after ingestion) turn out when `Cn1c(=O)[nH]c2ncn(C)c2c1=O` [paraxanthine, 1,7-dimethylxanthine] was run?
Answer: 816.4 Millisecond

Question: And the “Sternberg Mean Response Time” value ([1]; hour 6 after ingestion, in ms (unit assumed))?
Answer: 695.4

Question: And the “letter length 6 present reaction time (FIG. 20)” value ([1]; hours 4 and 5)?
Answer: improved present reaction time

Question: What about the “decrease of mean response times in the Sternberg Test compared to baseline” value ([1]; overall, vs baseline) of the same compound?
Answer: 3.9%

Question: And the “Round 1 Condition P mean response time (FIG. 6)” value [2]?
Answer: no significant differences over time or between treatments

Question: What about the “percentage of correct answers, in words” value [2] of the same compound?
Answer: maintained percentage of correct answers

Question: What about the “Correct Response Mean Accuracy (%)” value ([2]; Mean (SEM) over all hours) of the same compound?
Answer: 92.5%

Question: What about the “Round 1: Condition P Mean - Response Time (Millisecond)” value (“Round 1: Condition P Mean” for short) ([2]; Mean (SEM) over all hours) of the same compound?
Answer: 394.55 ± 18.07 Millisecond

Question: What about the “Round 2: Condition P Mean - Response Time (Millisecond)” value (shortened to “Round 2: Condition P Mean”) ([2]; Mean (SEM) over all hours) of the same compound?
Answer: 356.55 ± 18.00 Millisecond

Question: What about the “Round 2: Condition R Mean - Response Time (Millisecond)” value (“Round 2: Condition R Mean” below) ([2]; Mean (SEM) over all hours) of the same compound?
Answer: 396.32 ± 20.27 Millisecond

Question: And the “Response Time Average” value ([2]; Mean (SEM) over all hours)?
Answer: 374.94 ± 17.45

Question: And the “Correct Response Mean Accuracy (%)” value ([2]; Mean (SEM) over all hours, listed as PX)?
Answer: 92.5 ± 1.3%

Question: And the “response times to correctly respond compared to PLA” value ([2]; acute)?
Answer: faster response times

Question: And the “Correct Response Mean Accuracy (%)” value ([2]; hour 0 (before ingestion))?
Answer: 93.0 ± 2.9%

Question: What about the “Round 1: Condition P Mean” value ([2]; hour 0 (before ingestion)) of the same compound?
Answer: 392.29 ± 44.29 Millisecond

Question: What about the “Round 1: Condition R Mean - Response Time (Millisecond)” value (from here on “Round 1: Condition R Mean”) ([2]; hour 0 (before ingestion)) of the same compound?
Answer: 344.30 ± 70.08 Millisecond

Question: And the “Round 2: Condition P Mean” value ([2]; hour 0 (before ingestion))?
Answer: 345.19 ± 37.11 Millisecond

Question: And the “Round 2: Condition R Mean” value ([2]; hour 0 (before ingestion))?
Answer: 401.46 ± 52.36 Millisecond

Question: What about the “Response Time Average” value ([2]; hour 0 (before ingestion)) of the same compound?
Answer: 373.88 ± 43.64

Question: And the “Correct Response Mean Accuracy (%)” value ([2]; hour 1 after ingestion)?
Answer: 93.7 ± 2.3%

Question: And the “Round 1: Condition P Mean” value ([2]; hour 1 after ingestion)?
Answer: 387.51 ± 38.34 Millisecond

Question: And the “Round 1: Condition R Mean” value ([2]; hour 1 after ingestion)?
Answer: 336.24 ± 73.85 Millisecond

Question: And the “Round 2: Condition P Mean” value ([2]; hour 1 after ingestion)?
Answer: 346.39 ± 47.07 Millisecond

Question: What about the “Round 2: Condition R Mean” value ([2]; hour 1 after ingestion) of the same compound?
Answer: 390.30 ± 41.57 Millisecond

Question: What about the “Response Time Average” value ([2]; hour 1 after ingestion) of the same compound?
Answer: 366.68 ± 36.59

Question: What about the “Correct Response Mean Accuracy (%)” value ([2]; hour 2 after ingestion) of the same compound?
Answer: 92.9 ± 3.6%

Question: And the “Round 1: Condition P Mean” value ([2]; hour 2 after ingestion)?
Answer: 392.71 ± 38.09 Millisecond

Question: And the “Round 1: Condition R Mean” value ([2]; hour 2 after ingestion)?
Answer: 347.17 ± 59.16 Millisecond

Question: What about the “Round 2: Condition P Mean” value ([2]; hour 2 after ingestion) of the same compound?
Answer: 352.72 ± 46.18 Millisecond

Question: What about the “Round 2: Condition R Mean” value ([2]; hour 2 after ingestion) of the same compound?
Answer: 389.31 ± 39.82 Millisecond

Question: And the “Response Time Average” value ([2]; hour 2 after ingestion)?
Answer: 371.09 ± 30.25

Question: And the “Correct Response Mean Accuracy (%)” value ([2]; hour 3 after ingestion)?
Answer: 91.7%

Question: And the “Round 1: Condition P Mean” value ([2]; hour 3 after ingestion)?
Answer: 402.18 Millisecond

Question: What about the “Round 1: Condition R Mean” value ([2]; hour 3 after ingestion) of the same compound?
Answer: 360.11 Millisecond

Question: What about the “Round 2: Condition P Mean” value ([2]; hour 3 after ingestion) of the same compound?
Answer: 372.09 Millisecond

Question: And the “Round 2: Condition R Mean” value ([2]; hour 3 after ingestion)?
Answer: 401.47 Millisecond

Question: What about the “Response Time Average” value ([2]; hour 3 after ingestion) of the same compound?
Answer: 384.07

Question: And the “Correct Response Mean Accuracy (%)” value ([2]; hour 4 after ingestion)?
Answer: 91.3%

Question: And the “Round 1: Condition P Mean” value ([2]; hour 4 after ingestion)?
Answer: 387.65 Millisecond

Question: And the “Round 1: Condition R Mean” value ([2]; hour 4 after ingestion)?
Answer: 350.94 Millisecond

Question: What about the “Round 2: Condition P Mean” value ([2]; hour 4 after ingestion) of the same compound?
Answer: 362.02 Millisecond

Question: What about the “Round 2: Condition R Mean” value ([2]; hour 4 after ingestion) of the same compound?
Answer: 399.45 Millisecond

Question: What about the “Response Time Average” value ([2]; hour 4 after ingestion) of the same compound?
Answer: 375.03

Question: What about the “Correct Response Mean Accuracy (%)” value ([2]; hour 5 after ingestion) of the same compound?
Answer: 93.1%

Question: What about the “Round 1: Condition P Mean” value ([2]; hour 5 after ingestion) of the same compound?
Answer: 406.70 Millisecond

Question: And the “Round 1: Condition R Mean” value ([2]; hour 5 after ingestion)?
Answer: 365.08 Millisecond

Question: And the “Round 2: Condition P Mean” value ([2]; hour 5 after ingestion)?
Answer: 359.18 Millisecond

Question: What about the “Round 2: Condition R Mean” value ([2]; hour 5 after ingestion) of the same compound?
Answer: 405.58 Millisecond

Question: And the “Response Time Average” value ([2]; hour 5 after ingestion)?
Answer: 383.60

Question: What about the “Correct Response Mean Accuracy (%)” value ([2]; hour 6 after ingestion) of the same compound?
Answer: 91.6 ± 4.4%

Question: And the “Round 1: Condition P Mean” value ([2]; hour 6 after ingestion)?
Answer: 393.51 ± 53.02 Millisecond

Question: What about the “Round 1: Condition R Mean” value ([2]; hour 6 after ingestion) of the same compound?
Answer: 352.14 ± 56.48 Millisecond

Question: What about the “Round 2: Condition P Mean” value ([2]; hour 6 after ingestion) of the same compound?
Answer: 357.05 ± 99.19 Millisecond

Question: What about the “Round 2: Condition R Mean” value ([2]; hour 6 after ingestion) of the same compound?
Answer: 387.41 ± 53.47 Millisecond

Question: And the “Response Time Average” value ([2]; hour 6 after ingestion)?
Answer: 371.27 ± 53.76

Question: And the “average response time (FIG. 10)” value ([2]; round 1+round 2)?
Answer: maintained mean response time over time

Question: And the “Round 1 Condition R mean response time (FIG. 7)” value ([2]; round 1, vs PLA)?
Answer: better maintained mean response time over time compared to PLA

Question: What about the “Round 2 Condition P mean response time (FIG. 8)” value ([2]; round 2, vs PLA) of the same compound?
Answer: better maintained mean response time over time compared to PLA

Question: What about the “Round 2 Condition R mean response time (FIG. 9)” value ([2]; round 2, vs PLA) of the same compound?
Answer: non-significantly better maintained mean response time over time compared to PLA

Question: What about the “change of mean response times” value ([2]; vs baseline) of the same compound?
Answer: −0.3%

Question: And the “decrease of correct responses in comparison to baseline” value ([2]; vs baseline)?
Answer: 0.5%

Question: What about the “Mean Correct Responses higher compared to placebo” value ([2]; vs placebo) of the same compound?
Answer: 1.1%
